According to US20030224403A1 (priority 2002, published 2003):
Values joined by “and” are separate entries in the source; they are usually repeats but may differ in a detail not shown here. Equal entries are not always repeated. “Also recorded” adds a separate entry of the source. Residues, ends and D or L forms follow the SMILES beside them. *: point of attachment. Cbz = O=C(OCc1ccccc1)*; CH2F = FC*

What was measured:
RAW 264.7 cells [1] = assay type: cell-based, mouse
RAW 264.7 cells [2] = assay type: cell-based, mouse; remark: listed apart in the source
[3] = test system: Fas expression in RAW 264.7 cells; assay type: cell-based, mouse
B. anthracis spores [4] = settings: in vivo
[5] = mouse, in vivo, ip; cited from earlier work
B. anthracis spores [6] = settings: in vivo; remark: listed apart in the source
RAW 264.7 cells [7] = assay type: cell-based, mouse; remark: listed apart in the source
RAW 264.7 cells [8] = assay type: cell-based, mouse; remark: listed apart in the source
[9] = test system: RAW 264.7 cells infected with anthrax (Sterne) spores; assay type: cell-based, mouse
[10] = test system: human PBMCs infected with anthrax (Sterne) spores; assay type: cell-based
anthrax (Sterne) spores = test system: anthrax (Sterne) spores; set-up: species or system B. anthracis
RAW 264.7 cells [11] = assay type: cell-based, mouse; remark: listed apart in the source
RAW 264.7 cells [12] = assay type: cell-based, mouse; settings: 4 h
[13] = test system: human peripheral blood monocytes / PBMCs; assay type: cell-based

GM-CSF: recombinant murine granulocyte-macrophage colony stimulating factor
overall cell survival and relative number of apoptotic cells in presence of LeTx (RAW 264.7 cells [1]): substantially increased
prevention of LeTx-induced apoptosis (RAW 264.7 cells [1]): incapable of preventing apoptosis completely
protection of Raw 264.7 cells from LeTx (RAW 264.7 cells [1]): partially protected
effect of murine cytokine on cell lysis by LeTx (RAW 264.7 cells [2]): increased cell survival
Fas expression after stimulation with cytokine [3]: greatly increased
mice survived after 24 days (B. anthracis spores [4]; ip): 20%
toxicity in mice [5]: No toxicity

O=C(O)c1cn(C2CC2)c2cc(N3CCNCC3)c(F)cc2c1=O [ciprofloxacin]
mice alive after 11 days (B. anthracis spores [4]): 100%
mice survived at least 14 days (B. anthracis spores [4]): 100%
protection of mice (FIG. 29) (B. anthracis spores [4]): complete protection
survival (FIG. 29) (B. anthracis spores [4]): 10%
mice alive after 15 days (B. anthracis spores [6]): approximately 50%
survival of mice by day 12 (B. anthracis spores [6]): 50%

NC[C@@H]1O[C@H](O[C@H]2[C@@H](O)[C@H](O[C@@H]3[C@@H](O)[C@H](N)C[C@H](N)[C@H]3O[C@H]3O[C@H](CN)[C@@H](O)[C@H](O)[C@H]3N)O[C@@H]2CO)[C@H](N)[C@@H](O)[C@@H]1O [neomycin]
mice alive after 11 days (B. anthracis spores [4]): 100%
survival of mice after 10 days (B. anthracis spores [6]): less than 20%

COc1cccc(-c2cc(=O)c3ccccc3o2)c1N [PD 98059]
antitoxin effect (cell survival, MTT) (RAW 264.7 cells [7]): did not display an antitoxin effect; also recorded: do not increase cell survival; also recorded: none of these inhibitors increased cell survival

COc1ccc(CCN(C)CCCC(C#N)(c2ccc(OC)c(OC)c2)C(C)C)cc1OC (stereo not drawn) [verapamil]
survival of mice (B. anthracis spores [4]): dead by 11 days

COC(=O)CC[C@H](NC(=O)[C@H](Cc1c[nH]c2ccccc12)NC(=O)OCc1ccccc1)C(=O)N[C@@H](Cc1cnc[nH]1)C(=O)N[C@@H](CC(=O)OC)C(=O)CF [inhibitor of caspase 1, Z-WEHD-FMK] (Cbz-WE(OMe)HD(OMe)-CH2F)
protection of cells against LeTx (membrane permeability staining) (RAW 264.7 cells [8]): different degree of protection

CC(C)C[C@H](NC(=O)[C@@H](O)[C@H](N)Cc1ccccc1)C(=O)O [bestatin]
bactericidal activity of Raw 264.7 cells [9]: restores a bactericidal activity
killing (bactericidal) activity of human PBMCs [10]: increased in a concentration dependent manner; also recorded: restores a bactericidal activity
survival of mice (B. anthracis spores [4]): dead by 11 days
mice dead by day 9 (B. anthracis spores [6]): more than 30%
intrinsic antibiotic activity (anthrax (Sterne) spores): undetectable

CC[C@H](C)[C@H](NC(=O)OCc1ccccc1)C(=O)N[C@@H](CCC(=O)OC)C(=O)N[C@H](C(=O)N[C@@H](CC(=O)OC)C(=O)CF)[C@@H](C)O [inhibitor of caspase 8, Z-IETD-FMK] (Cbz-IE(OMe)TD(OMe)-CH2F)
protection of cells against LeTx (membrane permeability staining) (RAW 264.7 cells [8]): most active

COC(=O)CC[C@H](NC(=O)[C@H](CC(=O)OC)NC(=O)OCc1ccccc1)C(=O)N[C@H](C(=O)N[C@@H](CC(=O)OC)C(=O)CF)C(C)C [inhibitor of caspase 3, Z-DEVD-FMK]
protection of cells against LeTx (membrane permeability staining) (RAW 264.7 cells [8]): different degree of protection

CO/C1=C\C(C)=C\[C@@H](C)[C@@H](O)[C@@H](C)C/C(C)=C/C=C/[C@H](OC)[C@@H]([C@@H](C)[C@@H](O)[C@H](C)[C@@]2(O)C[C@@H](O)[C@H](C)[C@@H](C(C)C)O2)OC1=O [bafilomycin A1]
survival of mice (B. anthracis spores [4]): dead by 11 days

COC(=O)C[C@H](NC(=O)[C@H](C)NC(=O)[C@@H](NC(=O)OCc1ccccc1)C(C)C)C(=O)CF [Z-VAD-fmk, benzyloxycarbonyl-Val-Ala-Asp-fluoromethylketone] (Cbz-Val-Ala-Asp(OMe)-CH2F)
survival of mice (B. anthracis spores [4]): dead by 11 days
mice alive by day 15 (B. anthracis spores [4]; ip): 20%
mice survived by day 15 (B. anthracis spores [4]; ip): 20% and 10%

CCN(CC)CCCC(C)Nc1ccnc2cc(Cl)ccc12 (stereo not drawn) [chloroquine]
survival of mice (B. anthracis spores [4]): dead by 11 days

COC(=O)CC[C@H](NC(=O)[C@H](CC(C)C)NC(=O)OCc1ccccc1)C(=O)N[C@@H](Cc1cnc[nH]1)C(=O)N[C@@H](CC(=O)OC)C(=O)CF [inhibitor of caspase-9, Z-LEHD-FMK] (Cbz-LE(OMe)HD(OMe)-CH2F)
protection of cells against LeTx (membrane permeability staining) (RAW 264.7 cells [8]): unable to protect

IL-6: cytokine
cell viability relative to cells treated with toxin only (MTT) (RAW 264.7 cells [11]): increased cell viability

Z-YVAD [inhibitor of caspase 4]
protection of cells against LeTx (membrane permeability staining) (RAW 264.7 cells [8]): most active

TNF-α
effect of murine cytokine on cell lysis by LeTx (RAW 264.7 cells [2]): greatly increased cell lysis
Fas expression after stimulation with cytokine [3]: greatly increased

C[S+]([O-])c1ccc(-c2nc(-c3ccncc3)c(-c3ccc(F)cc3)[nH]2)cc1 (stereo not drawn) [SB 203580]
antitoxin effect (cell survival, MTT) (RAW 264.7 cells [7]): not able to decrease the effect of LeTx; also recorded: do not increase cell survival; also recorded: none of these inhibitors increased cell survival

trypsin
survival of mice (B. anthracis spores [4]): dead by 11 days

CC[C@H](C)[C@H](NC(=O)[C@H](CCC(=O)OC)NC(=O)[C@@H](NC(=O)OCc1ccccc1)C(C)C)C(=O)N[C@@H](CC(=O)OC)C(=O)CF [inhibitor of caspase 6, Z-VEID-FMK] (Cbz-VE(OMe)ID(OMe)-CH2F)
protection of cells against LeTx (membrane permeability staining) (RAW 264.7 cells [8]): most active

COC(=O)C[C@H](NC(=O)[C@H](C)NC(=O)[C@@H](NC(=O)[C@H](CC(=O)OC)NC(=O)[C@@H](NC(=O)OCc1ccccc1)C(C)C)C(C)C)C(=O)CF [inhibitor of caspase 2, Z-VDVAD-FMK] (Cbz-VD(OMe)VAD(OMe)-CH2F)
protection of cells against LeTx (membrane permeability staining) (RAW 264.7 cells [8]): different degree of protection

CN[C@@H]1C[C@H]2O[C@@](C)([C@@H]1OC)n1c3ccccc3c3c4c(c5c6ccccc6n2c5c31)C(=O)NC4 [staurosporine]
mitochondrial transmembrane potential (JC-1 staining) (RAW 264.7 cells [12]): JC-1 staining changes similar to LeTx
fluorescence pattern (YO-PRO-1) of human monocytes [13]: fluorescence pattern typical of apoptotic cells

B1: IFN-γ: recombinant mouse interferon-gamma (protein, UniProt P01579 24-161, looked up)
Interferon gamma: QDPYVKEAENLKKYFNAGHSDVADNGTLFLGILKNWKEESDRKIMQSQIVSFYFKLFKNFKDDQSIQKSVETIKEDMNVKFFNSNKKKRDDFEKLTNYSVTDLNVQRKAIHELIQVMAELSPAAKTGKRKRSQMLFRG
effect of murine cytokine on cell lysis by LeTx (RAW 264.7 cells [2]): increased cell susceptibility to lysis
Fas expression after stimulation with cytokine [3]: greatly increased

B2: IL-4: cytokine (protein, UniProt P05112 25-153, looked up)
Interleukin-4: HKCDITLQEIIKTLNSLTEQKTLCTELTVTDIFAASKNTTEKETFCRAATVLRQFYSHHEKDTRCLGATAQQFHRHKQLIRFLKRLDRNLWGLAGLNSCPVKEANQSTLENFLERLKTIMREKYSKCSS
cell viability relative to cells treated with toxin only (MTT) (RAW 264.7 cells [11]): increased cell viability

B3: IL-12: murine interleukin-12 (protein, UniProt P29459 23-219; P29460 23-328, looked up)
Interleukin-12 subunit alpha: RNLPVATPDPGMFPCLHHSQNLLRAVSNMLQKARQTLEFYPCTSEEIDHEDITKDKTSTVEACLPLELTKNESCLNSRETSFITNGSCLASRKTSFMMALCLSSIYEDLKMYQVEFKTMNAKLLMDPKRQIFLDQNMLAVIDELMQALNFNSETVPQKSSLEEPDFYKTKIKLCILLHAFRIRAVTIDRVMSYLNAS
Interleukin-12 subunit beta: IWELKKDVYVVELDWYPDAPGEMVVLTCDTPEEDGITWTLDQSSEVLGSGKTLTIQVKEFGDAGQYTCHKGGEVLSHSLLLLHKKEDGIWSTDILKDQKEPKNKTFLRCEAKNYSGRFTCWWLTTISTDLTFSVKSSRGSSDPQGVTCGAATLSAERVRGDNKEYEYSVECQEDSACPAAEESLPIEVMVDAVHKLKYENYTSSFFIRDIIKPDPPKNLQLKPLKNSRQVEVSWEYPDTWSTPHSYFSLTFCVQVQGKSKREKKDRVFTDKTSATVICRKNASISVRAQDRYYSSSWSEWASVPCS
effect of murine cytokine on cell lysis by LeTx (RAW 264.7 cells [2]): without effect
